Data on 10 molecules can be found in ChEMBL document CHEMBL4043185, “Discovery of non-zwitterionic aryl sulfonamides as Nav1.7 inhibitors with efficacy in preclinical behavioral models and translational measures of nociceptive neuron activation” (Bioorg Med Chem, 2017).

A value given as a limit tells only on which side of the number the result lay.

Series [1] is described as follows: physchem. The conditions noted are these: PAMPA, pH 7.4. (In PAMPA a lipid-coated filter parts donor from acceptor wells.)
Series [2] in a line: physchem. The conditions noted are these: PAMPA, pH 5.5.
Series [3] can be described thus: Drug concentration in brain of mouse model of complete Freund's adjuvant-induced inflammatory pain at 30 mg/kg, po measured after 90 mins post dose. The conditions noted are these: read-out: Drug uptake. The series is classed as ADME, organism-based.
Series [4] can be described thus: Drug concentration in mouse trigeminal ganglion at 30 mg/kg, po measured after 30 mins post dose. The conditions noted are these: read-out: Drug uptake. Format: ADME, organism-based.
A short description of series [5]: Oral bioavailability life in mouse at 30 mg/kg. Format: ADME, organism-based. The conditions noted are these: in vivo.
In series [6] the test system is Plasma. The series can be described thus: Unbound plasma concentration in mouse model of nociceptive flexion reflex 10 mg/kg, ip measured after 60 mins post dose. The conditions noted are these: in vivo, 1 h. Format: ADME, organism-based.
The test system of series [7] is Plasma. In words: Unbound plasma concentration in mouse model of complete Freund's adjuvant-induced inflammatory pain at 30 mg/kg, po measured after 90 mins post dose. The series is classed as ADME, organism-based. The conditions noted are these: in vivo, 1.5 h.
Series [8] concerns Plasma. In words: Unbound plasma concentration in mouse model of formalin-induced persistent pain at 30 mg/kg, po measured after 90 mins post dose. The series is classed as ADME, organism-based. The conditions noted are these: in vivo, 1.5 h.
Series [9] has as its system Plasma. The series can be described thus: Plasma concentration in mouse model of chronic constriction injury-induced cold hyperalgesia at 100 mg/kg, po dosed 30 mins before testing starting 5 weeks after surgery. The series is classed as ADME, organism-based. The conditions noted are these: in vivo.
A short description of series [10]: Unbound drug concentration in mouse dorsal root ganglion at 30 mg/kg, po measured after 30 mins post dose. Format: ADME, organism-based. As to conditions: in vivo, 0.5 h; call rule not given here.
A short description of series [11]: Plasma concentration in mouse at 100 mg/kg, po measured after 90 mins post dose. The series is classed as ADME, organism-based.
Series [12] can be described thus: Plasma concentration in mouse at 100 mg/kg, po measured after 30 mins post dose. The series is classed as ADME, organism-based.
Series [13] can be described thus: Drug concentration in brain of mouse model of complete Freund's adjuvant-induced inflammatory pain at 10 mg/kg, po measured after 90 mins post dose. The series is classed as ADME, organism-based. As to conditions: read-out: Drug uptake.
Series [14] has as its system Plasma. The series can be described thus: Unbound plasma concentration in mouse model of chronic constriction injury-induced cold hyperalgesia at 100 mg/kg, po dosed 30 mins before testing starting 5 weeks after surgery. Format: ADME, organism-based. The conditions noted are these: in vivo.
Series [15] in a line: Half life in mouse at 30 mg/kg, po. Format: ADME, organism-based. The conditions noted are these: in vivo.
Series [16] in a line: Drug concentration in mouse brain at 100 mg/kg, po measured after 30 mins post dose. The series is classed as ADME, organism-based. The conditions noted are these: read-out: Drug uptake.
Series [17] is described as follows: Plasma concentration in mouse model of complete Freund's adjuvant-induced inflammatory pain at 10 mg/kg, po measured after 90 mins post dose. The series is classed as ADME, organism-based.
A short description of series [18]: Cmax in mouse at 30 mg/kg, po. The series is classed as ADME, organism-based. Set-up: dose 30 mg/kg, route oral. As to conditions: in vivo.
Series [19] is described as follows: Plasma concentration in mouse model of complete Freund's adjuvant-induced inflammatory pain at 60 mg/kg, po measured after 90 mins post dose. The series is classed as ADME, organism-based.
Series [20] deals with Plasma. In words: Unbound plasma concentration in mouse model of nociceptive flexion reflex 30 mg/kg, ip measured after 60 mins post dose. The series is classed as ADME, organism-based. As to conditions: in vivo, 1 h.
Series [21] in a line: Drug concentration in trigeminal ganglion of mouse model of formalin-induced persistent pain at 30 mg/kg, po measured after 90 mins post dose. Format: ADME, organism-based. As to conditions: read-out: Drug uptake.
Series [22] in a line: Volume of distribution at steady state in mouse at 2 mg/kg, iv. The conditions noted are these: in vivo, read-out: Vdss. The series is classed as ADME, organism-based.
The subject of series [23] is Plasma. In words: Unbound plasma concentration in mouse model of complete Freund's adjuvant-induced inflammatory pain at 60 mg/kg, po measured after 90 mins post dose. The series is classed as ADME, organism-based. The conditions noted are these: in vivo, 1.5 h.
Series [24] in a line: Plasma concentration in mouse model of complete Freund's adjuvant-induced inflammatory pain at 30 mg/kg, po measured after 90 mins post dose. The series is classed as ADME, organism-based.
The nature of series [25]: Ratio of drug level in brain to plasma of mouse at 100 mg/kg, po measured after 90 mins post dose. The series is classed as ADME, organism-based. The conditions noted are these: read-out: BPR.
Series [26] in a line: Unbound drug concentration in dorsal root ganglion of mouse model of formalin-induced persistent pain at 30 mg/kg, po measured after 90 mins post dose. The series is classed as ADME, organism-based. The conditions noted are these: in vivo, 1.5 h.
For series [27], the system named is Plasma. The series can be described thus: Unbound plasma concentration in mouse at 30 mg/kg, po measured after 30 mins post dose. The conditions noted are these: in vivo, 0.5 h. The series is classed as ADME, organism-based.
The nature of series [28]: Plasma concentration in mouse at 30 mg/kg, po measured after 30 mins post dose. The series is classed as ADME, organism-based.
The nature of series [29]: Plasma concentration in mouse model of nociceptive flexion reflex 10 mg/kg, ip measured after 60 mins post dose. Format: ADME, organism-based.
The nature of series [30]: Ratio of drug level in brain to plasma of mouse at 100 mg/kg, po measured after 30 mins post dose. As to conditions: read-out: BPR. Format: ADME, organism-based.
Series [31] is described as follows: Drug concentration in dorsal root ganglion of mouse model of formalin-induced persistent pain at 30 mg/kg, po measured after 90 mins post dose. Format: ADME, organism-based. The conditions noted are these: read-out: Drug uptake.
Series [32] can be described thus: Drug concentration in mouse brain at 100 mg/kg, po measured after 90 mins post dose. Format: ADME, organism-based. As to conditions: read-out: Drug uptake.
The nature of series [33]: Clearance in mouse at 2 mg/kg, iv. The series is classed as ADME, organism-based. As to conditions: in vivo.
Series [34] can be described thus: Plasma concentration in mouse model of nociceptive flexion reflex 30 mg/kg, ip measured after 60 mins post dose. Format: ADME, organism-based.
Series [35] relates to Plasma. In words: Unbound plasma concentration in mouse model of complete Freund's adjuvant-induced inflammatory pain at 10 mg/kg, po measured after 90 mins post dose. The conditions noted are these: in vivo, 1.5 h. Format: ADME, organism-based.
Series [36] can be described thus: Plasma concentration in mouse model of formalin-induced persistent pain at 30 mg/kg, po measured after 90 mins post dose. Format: ADME, organism-based.
The nature of series [37]: Drug concentration in brain of mouse model of complete Freund's adjuvant-induced inflammatory pain at 60 mg/kg, po measured after 90 mins post dose. Format: ADME, organism-based. The conditions noted are these: read-out: Drug uptake.
Series [38] is described as follows: Drug concentration in mouse dorsal root ganglion at 30 mg/kg, po measured after 30 mins post dose. Format: ADME, organism-based. As to conditions: read-out: Drug uptake.
The conditions of series [39]: PAMPA, pH 5.5.

For the molecule `O=S(=O)(Nc1nccs1)c1cc(Cl)c(NC[C@H]2CC[C@@H](O)CC2)cc1F`, the Papp – broadly, the rate of passage across a membrane or cell layer, normalised by area and donor concentration – in the series “physchem [1]” is 10.1 ×10⁻⁶ cm/s; in “physchem [2]”, 46.4 ×10⁻⁶ cm/s.

On to `O=S(=O)(Nc1nccs1)c1cc(Cl)c(NC[C@H]2CCCOC2)cc1F`, for which the concentration at 1.5 h in series [3] is less than 25 nM; in series [11] it was 3670 nM; in series [13] it was less than 25 nM; in series [17], 750 nM; in series [19], 2560 nM; in series [21], 5000 nM. Also, the concentration at 1.5 h in series [24] was 1130 nM; in [31] it was 660 nM; in series [32] it was 42 nM; in series [36], 7300 nM; in series [37], less than 25 nM. For the same molecule, the concentration at 0.5 h amounted to 5800 nM in series [4]; 7340 nM in [12]; 120 nM in series [16]; 13000 nM in [28]; 1100 nM in [38]. Also, the bioavailability (as a rule, dose-corrected exposure relative to a reference, in per cent) in [5] is 47%. Also, the “Cp(f)” value in the series with Plasma [6] is 660 nM; in the series with Plasma [7], 26 nM; in the series on Plasma [8] it was 170 nM; with Plasma [14], 740 nM; in the series with Plasma [20], 1900 nM; in the series with Plasma [23] it was 59 nM. For the same molecule, the “Cp(f)” value was 300 nM in the series on Plasma [27] and 17 nM in the series with Plasma [35]. The concentration with Plasma [9] came to 32000 nM. In addition, the “Drug uptake(free)” value in series [10] amounted to 0.11 µM; in series [26] it was 0.07 µM. Further, the half-life (in general, how long it takes for the measured level to halve) in series [15] was 3 h. In addition, the Cmax (in general, the maximum level reached in the sampled fluid or tissue) in [18] came out at 37000 nM. The Papp is 37.7 ×10⁻⁶ cm/s in the series “physchem [1]” and 47.7 ×10⁻⁶ cm/s in “physchem [2]”. Further, in series [22], the Vd stood at 0.6 L/kg. In addition, the Kp at 1.5 h in [25] was 0.012. Moreover, the concentration at 1 h in series [29] is 29000 nM; in [34], 82000 nM. Besides, the Kp at 0.5 h in series [30] came to 0.017. For the same molecule, the clearance (usually the rate of elimination divided by the concentration) in series [33] was determined as 13 mL/min/kg.

Consider `O=S(=O)(Nc1nccs1)c1cc(Cl)c(NCC2CCCC3(C2)OCCO3)cc1F` (stereo not given), for which the Papp in “physchem [1]” was 41.9 ×10⁻⁶ cm/s; in the series “physchem [2]” it was 45.1 ×10⁻⁶ cm/s.

With `O=S(=O)(Nc1nccs1)c1cc(Cl)c(NC[C@H]2CC[C@H](O)CC2)cc1F`, the Papp is 20.7 ×10⁻⁶ cm/s in “physchem [1]” and 54.6 ×10⁻⁶ cm/s in the series “physchem [2]”.

Take `O=S(=O)(Nc1nccs1)c1cc(Cl)c(NCC2CCCCO2)cc1F` (stereo not given): the Papp in the series “physchem [1]” and in the series “physchem [2]” was 61 ×10⁻⁶ cm/s each time.

Turning to `CC(C)(C)[C@H]1OCCC[C@@H]1CNc1cc(F)c(S(=O)(=O)Nc2nccs2)cc1Cl` (racemic), the Papp in “physchem [1]” is 67.7 ×10⁻⁶ cm/s; in series [39] it was “Not Active”.

In turn, `CC(C)(C)[C@@H]1OCCC[C@@H]1CNc1cc(F)c(S(=O)(=O)Nc2nccs2)cc1Cl` (racemic) yielded a Papp in “physchem [1]” of 43.9 ×10⁻⁶ cm/s.

Consider `O=S(=O)(Nc1nccs1)c1cc(Cl)c(NC[C@H]2CCC[C@H](O)C2)cc1F` (racemic), for which the results for the Papp in “physchem [1]” and in “physchem [2]” were 16.2 ×10⁻⁶ cm/s and 21.6 ×10⁻⁶ cm/s, respectively.

For the molecule `O=S(=O)(Nc1nccs1)c1cc(Cl)c(NC[C@H]2CCC[C@@H](O)C2)cc1F` (racemic), the values for the Papp in “physchem [1]” and in “physchem [2]” were 16.2 ×10⁻⁶ cm/s and 21.6 ×10⁻⁶ cm/s, respectively.

With `O=S(=O)(Nc1nccs1)c1cc(Cl)c(NC[C@H]2CCCO[C@@H]2c2ccccc2)cc1F` (racemic), the figures for the Papp in the series “physchem [1]” and in “physchem [2]” were 73.5 ×10⁻⁶ cm/s and 42.8 ×10⁻⁶ cm/s, respectively.
